Reference: the NIST ThermoML archive (doi:10.1016/j.fluid.2014.05.006)
± gives the expanded uncertainty stated by the source.

How the values were obtained:
[1] = relative permittivity at zero frequency (dimensionless); settings: 298 K; 94.77 kPa; Liquid; Parallel plate capacitor
[2] = relative permittivity at zero frequency (dimensionless); xn = mol fraction of the nth substance listed; settings: 298 K, 94.77 kPa, Liquid, Parallel plate capacitor

Cn1ccnc1 [1-methylimidazole]
relative permittivity at zero frequency [1]: 39.78 ± 4.2

Cn1ccnc1 [1-methylimidazole] + O
relative permittivity at zero frequency ([2]; x2 = 0): 39.78 ± 4.2 | relative permittivity at zero frequency ([2]; x2 = 0.1): 40.98 ± 4.3 | relative permittivity at zero frequency ([2]; x2 = 0.2): 42.55 ± 4.5 | relative permittivity at zero frequency ([2]; x2 = 0.3): 45.87 ± 4.9 | relative permittivity at zero frequency ([2]; x2 = 0.4): 46.02 ± 4.9 | relative permittivity at zero frequency ([2]; x2 = 0.5): 48.53 ± 5.2 | relative permittivity at zero frequency ([2]; x2 = 0.6): 50.04 ± 5.3 | relative permittivity at zero frequency ([2]; x2 = 0.7): 50.99 ± 5.4 | relative permittivity at zero frequency ([2]; x2 = 0.8): 52 ± 5.5 | relative permittivity at zero frequency ([2]; x2 = 0.9): 53.01 ± 7.5

O [water]
relative permittivity at zero frequency [1]: 80 ± 8.5

O [water] + Cn1ccnc1
relative permittivity at zero frequency ([2]; x1 = 1): 80 ± 8.5
